Reference: ChEMBL document CHEMBL1144301, “Non-peptidic small molecule inhibitors of XIAP” (Bioorg Med Chem Lett, 2005)

Target: E3 ubiquitin-protein ligase XIAP (Homo sapiens, UniProt P98170)
Assay: Dissociation constant against BIR3 domain of X-linked IAP in fluorescence polarization anisotropy competition assay

E3 ubiquitin-protein ligase XIAP, sequence (P98170 whole entry, the tested form may be a part): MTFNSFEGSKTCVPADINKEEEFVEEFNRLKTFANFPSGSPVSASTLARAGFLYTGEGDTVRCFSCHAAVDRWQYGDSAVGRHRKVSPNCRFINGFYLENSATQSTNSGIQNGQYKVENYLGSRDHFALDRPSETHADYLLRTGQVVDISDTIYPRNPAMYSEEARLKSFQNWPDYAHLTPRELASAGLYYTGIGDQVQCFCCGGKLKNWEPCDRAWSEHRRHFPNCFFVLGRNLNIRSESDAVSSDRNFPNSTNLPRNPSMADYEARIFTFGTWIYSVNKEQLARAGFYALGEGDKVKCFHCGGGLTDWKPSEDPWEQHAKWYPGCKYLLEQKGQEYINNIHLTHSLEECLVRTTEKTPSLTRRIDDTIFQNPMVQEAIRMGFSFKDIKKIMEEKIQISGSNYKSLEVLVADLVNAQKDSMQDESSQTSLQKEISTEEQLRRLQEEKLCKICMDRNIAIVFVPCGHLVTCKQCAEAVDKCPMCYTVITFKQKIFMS

Kd: > 100 µM
SMILES: C[C@H](N)C(=O)Nc1nc(-c2cccc(Cc3ccccc3)c2)c(Cc2ccccc2)s1
